Results from PubChem BioAssay (NCI).
Values joined by “and” are separate entries in the source; they are usually repeats but may differ in a detail not shown here. Equal entries are not always repeated.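 Five compound concentrations were applied to cells in 96-well plates for 48 hours; endpoints were derived by simple linear interpolation of the resulting dose-response curve. Here, GI50 denotes the concentration required for 50% inhibition of growth. TGI: total growth inhibition.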

Columns and labels:
Assay in all cases: DTP human tumour cell line panel, 48 h
KM12 colon = tested on: KM12 colon
SF-268 CNS = tested on: SF-268 CNS
A498 renal = tested on: A498 renal
HCC-2998 colon = tested on: HCC-2998 colon
LOX IMVI melanoma = tested on: LOX IMVI melanoma
A549 NSCLC = tested on: A549 NSCLC
MALME-3M melanoma = tested on: MALME-3M melanoma
NCI-H23 lung = tested on: NCI-H23 lung
SNB-75 CNS = tested on: SNB-75 CNS
CAKI-1 renal = tested on: CAKI-1 renal

Row | SMILES | TGI (KM12 colon) [µM] | TGI (SF-268 CNS) [µM] | TGI (A498 renal) | TGI (HCC-2998 colon) | TGI (LOX IMVI melanoma) [µM] | TGI (A549 NSCLC) | TGI (MALME-3M melanoma) | TGI (NCI-H23 lung) | TGI (SNB-75 CNS) | TGI (CAKI-1 renal) | GI50 (KM12 colon) | GI50 (SF-268 CNS) [µM] | GI50 (A498 renal) | GI50 (HCC-2998 colon) [µM] | GI50 (LOX IMVI melanoma) [µM] | GI50 (A549 NSCLC) [µM] | GI50 (MALME-3M melanoma) [µM] | GI50 (NCI-H23 lung) [µM] | GI50 (SNB-75 CNS) | GI50 (CAKI-1 renal) [µM]
1 | CN(/N=C\c1ccnc2ccccc12)c1ccc([N+](=O)[O-])cc1 | > 100 | > 100 | > 100 µM | > 100 µM | > 100 | > 100 µM | > 100 µM | > 100 µM | > 100 µM | > 100 µM | – | – | – | – | – | – | – | – | – | –
2 | COC(=O)C1C(=O)O[C@@H](c2cc(OC)c(OC)cc2OC)C1C(=O)OC (mixture of isomers) | > 100 | > 100 | > 100 µM | > 100 µM | > 100 | > 100 µM | > 100 µM | > 100 µM | > 100 µM | > 100 µM | – | – | – | – | – | – | – | – | – | –
3 | CCc1nc2ccc(N=Nc3c(O)ccc4ccccc34)cc2[nH]1 | 31.9 | 53.3 | 50.6 µM | 29.7 µM | 28.8 | 55.8 µM | 33.6 µM | 49.2 µM | 37.5 µM | 40.2 µM | – | – | – | – | – | – | – | – | – | –
4 | O=C1/C(=C/c2ccc(Cl)cc2)CNC/C1=C\c1ccc(Cl)cc1 | 3.07 | 3.77 | 5.01 µM and 25.6 µM | 4 µM and 3.36 µM | 4.02 | > 100 µM and 27.4 µM | 20.5 µM and 16.8 µM | 4.17 µM and 4.24 µM | 10.3 µM and > 29.5 µM | 5.98 µM and 3.82 µM | – | – | – | – | – | – | – | – | – | –
5 | C=CCC(N[C@H](CO)c1ccccc1)c1cn(Cc2ccccc2Cl)c(=O)n(Cc2ccccc2Cl)c1=O (some centres undefined) | 73.3 | > 100 | 39.1 µM | 27.3 µM | 19 | > 100 µM | 81 µM | 62.1 µM | 64.8 µM | 32.2 µM | 17.5 µM | 18.6 | 11 µM | 10.7 | 6.27 | 15.3 | 34.5 | 19.5 | 16.6 µM | 4.46
6 | CNS(=O)(=O)NNS(=O)(=O)c1ccc(OC)cc1 | > 100 | > 100 | > 100 µM | > 100 µM | > 100 | > 100 µM | > 100 µM | > 100 µM | > 100 µM | > 100 µM | – | – | – | – | – | – | – | – | – | –
7 | CC(=O)C1=C(O)C=C2Oc3c(C(=O)/C=C/c4cc(Cl)cc(Cl)c4)c(O)c(C)c(O)c3[C@]2(C)C1=O | 1.76 | 3.38 | 0.5 µM | 2.69 µM | 1.79 | 2.98 µM | 0.739 µM | 2.05 µM | 4.06 µM | 4.19 µM | 0.46 µM | 0.67 | 0.259 µM | 0.667 | 0.512 | 0.566 | 0.335 | 0.5 | 1.66 µM | 0.502
8 | COc1cc(C2c3cc4c(cc3C(OC(=O)C[n+]3ccccc3)C3COC(=O)C23)OCO4)cc(OC)c1OC (centres undefined) | > 100 | > 100 | 15.8 µM | > 20.9 µM | > 100 | > 100 µM | > 100 µM | > 100 µM | > 100 µM | > 100 µM | < 0.0168 µM | < 0.0208 | < 0.01 µM | < 0.0174 | < 0.0179 | < 0.0197 | > 100 | < 0.0217 | 1.33 µM | < 0.0184
9 | COc1cc(C(=O)c2cnc(-c3cccc4[nH]ccc34)[nH]2)cc(OC)c1OC | 24 | > 100 | – | 59.3 µM | > 100 | > 100 µM | 83 µM | > 100 µM | > 100 µM | > 100 µM | 0.04 µM and < 0.01 µM | – | 0.049 µM and < 0.01 µM | – | – | – | 19.6 | – | 0.0295 µM and < 0.01 µM | < 0.01
10 | Clc1ccccc1-c1nnc2c(Cc3ccccc3)nc3ccccc3n12 | > 100 | > 100 | > 100 µM | > 100 µM | > 100 | > 100 µM | > 100 µM | > 100 µM | 40.3 µM | > 100 µM | 13.1 µM | 7.15 | 1.21 µM | 59.9 | 3.5 | 8.78 | 33 | > 100 | 3.78 µM | 9.59
11 | CCN(CC)CCCC(C)N/C(=C1\C(=O)NC(=O)\C1=C(/NC(C)CCCN(CC)CC)c1cccc(OC)c1)c1cccc(OC)c1 (centres undefined) | 4.06 | 3.11 | 5.58 µM | 1.61 µM | 1.49 | 1.8 µM | 1.63 µM | 3.15 µM | 1.67 µM | 2.52 µM | 0.835 µM | 1.03 | 0.791 µM | 0.845 | 0.676 | 0.819 | 0.85 | 1.19 | 0.735 µM | 1.03
12 | COC(=O)c1oc2c(C(=O)/C=C/c3ccc(OC)cc3)c(OCCN(C)C)ccc2c1C | 24.5 | 20.5 | 22.6 µM | 24.6 µM | 17 | 23 µM | 27.8 µM | 26.1 µM | 22.2 µM | 20.2 µM | 9.43 µM | 5.63 | 10.1 µM | 10.2 | 4.52 | 5.08 | 11.4 | 9.76 | 9.94 µM | 6.95
13 | Cn1c2c(c3c(Cl)nncc31)Cc1ccccc1-2 | > 100 | > 100 | 34.5 µM | > 100 µM | > 100 | > 100 µM | 85.6 µM | 49 µM | > 100 µM | 67.2 µM | 32.8 µM | 25.9 | 11.4 µM | 20.9 | 20.9 | 20.6 | 24.9 | 18.7 | 76.8 µM | 16.9
14 | CCNC(=O)Oc1ccc(/C(=C(/C)Cc2ccc(OC)cc2)c2ccc(OCCN(CC)CC)cc2)cc1 | 4.58 | 4.75 | 11.1 µM | 3.29 µM | 3.22 | 3.62 µM | 3.22 µM | 5.35 µM | 4.93 µM | 3.84 µM | 2.01 µM | 1.98 | 2.58 µM | 1.7 | 1.66 | 1.87 | 1.64 | 2.09 | 1.69 µM | 1.64
15 | CCN(Cc1cccc(Cl)c1)c1ccc(CO)c(Cl)c1 | 26.8 | 28 | 0.166 µM | 24.8 µM | 22.3 | 17 µM | 32.8 µM | 23.7 µM | 30.2 µM | 10.1 µM | 12.9 µM | 13.8 | 0.029 µM | 11.3 | 9.11 | 2.47 | 15.8 | 7.51 | 12 µM | 0.724
16 | CCCCCCCCCCCCOC1C(CNC(=O)C2OC3OC(C)(C)OC3C2NC(=O)CN2CCN(c3ccc(OC)cc3)CC2)OC2OC(C)(C)OC21 (centres undefined) | 10.9 | 11.5 | 20.3 µM | 11 µM | 12.3 | 18.2 µM | 24.1 µM | 32 µM | 17.4 µM | 24.5 µM | 3.35 µM | 3.12 | 7.96 µM | 3.4 | 3.71 | 3.18 | 11.9 | 9.68 | 4.46 µM | 12.1
17 | CC(=O)N1N=C(c2ccc(Nc3nc(Nc4ccc(F)cc4)nc(Nc4ccc(F)cc4)n3)cc2)CC1c1ccc(N(C)C)cc1 (centres undefined) | 12.4 | 43.3 | 26.8 µM | > 100 µM | 24.6 | 26.8 µM | 34.8 µM | 26.7 µM | 9.89 µM | 93.1 µM | 3.34 µM | 12.8 | 5.58 µM | 15.9 | 12.2 | 4.58 | 11.4 | 4.1 | 1.51 µM | 15.6
18 | CC1C2C=C(O)C(=O)C(C2=O)C1c1ccccc1 (centres undefined) | > 100 | > 100 | > 100 µM | > 100 µM | > 100 | > 100 µM | > 100 µM | > 100 µM | > 100 µM | > 100 µM | – | – | – | – | – | – | – | – | – | –
19 | Nc1ccccc1C(=O)CCC1C(=O)NC(=S)NC1=O | > 100 | > 100 | > 100 µM | > 100 µM | > 100 | > 100 µM | > 100 µM | > 100 µM | > 89.6 µM | > 100 µM | – | – | – | – | – | – | – | – | – | –
20 | Cc1cc(Nc2cc(N3CCN(C)CC3)nc(/C=C/c3ccccc3)n2)n[nH]1 | > 3.84 | > 4.08 | 1.66 µM | 4.42 µM | 1.51 | > 10 µM | > 4.77 µM | > 5.23 µM | 2.12 µM | > 5.38 µM | 0.0426 µM | 0.845 | 0.389 µM | 0.839 | 0.334 | 0.501 | 0.796 | 1.14 | 0.391 µM | 0.223
